Measurements published in PubChem BioAssay (NCI).
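Values below derive from 48-hour exposures of cells grown in 96-well plates, with endpoints linearly interpolated between the two concentrations bracketing the appropriate inhibition level. GI50: concentration for 50% inhibition of growth. TGI is the concentration that stops growth completely.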

Experiments:
Assay in all cases: NCI-60 cell line screen, 48 h
[1] = test system: RXF 393 renal
[2] = test system: SR leukemia
[3] = test system: HOP-62 NSCLC
[4] = test system: MDA-MB-435
[5] = test system: SNB-19 CNS
[6] = test system: OVCAR-8 ovarian
[7] = test system: CCRF-CEM leukemia
[8] = test system: SK-MEL-5 melanoma
[9] = test system: COLO 205 colon
[10] = test system: UO-31 renal
[11] = test system: MALME-3M melanoma
[12] = test system: MOLT-4 leukemia
[13] = test system: HT29 colon
[14] = test system: KM12 colon
[15] = test system: HCT-116 colon
[16] = test system: UACC-62 melanoma
[17] = test system: HCT-15 colon
[18] = test system: U251 CNS
[19] = test system: SK-MEL-28 melanoma
[20] = test system: EKVX NSCLC
[21] = test system: HS 578T breast
[22] = test system: MCF7 breast
[23] = test system: IGROV1 ovarian
[24] = test system: ACHN renal
[25] = test system: TK-10 renal
[26] = test system: MDA-MB-231 breast
[27] = test system: 786-0 renal
[28] = test system: SK-OV-3 ovarian
[29] = test system: LOX IMVI melanoma
[30] = test system: SN12C renal
[31] = test system: CAKI-1 renal
[32] = test system: A498 renal
[33] = test system: HOP-92 NSCLC
[34] = test system: NCI-H460 lung
[35] = test system: M14 melanoma
[36] = test system: RPMI-8226 leukemia
[37] = test system: SF-295 CNS
[38] = test system: BT-549 breast
[39] = test system: K-562 leukemia
[40] = test system: UACC-257 melanoma
[41] = test system: SK-MEL-2 melanoma
[42] = test system: NCI-H23 lung
[43] = test system: HCC-2998 colon
[44] = test system: SW-620 colon
[45] = test system: A549 NSCLC
[46] = test system: OVCAR-4 ovarian
[47] = test system: T-47D breast
[48] = test system: PC-3 prostate
[49] = test system: NCI-H522 lung
[50] = test system: OVCAR-5 ovarian
[51] = test system: NCI/ADR-RES ovarian
[52] = test system: OVCAR-3 ovarian
[53] = test system: SNB-75 CNS
[54] = test system: HL-60(TB) leukemia
[55] = test system: SF-539 CNS
[56] = test system: SF-268 CNS
[57] = test system: DU-145 prostate
[58] = test system: NCI-H226 lung

In the case of `Cc1oc2nc[nH]c(=O)c2c1C(=O)/C=C/c1ccc(Br)cc1`, the GI50 [1] is reported as 1.41 µM, the TGI [1] is reported as 3.22 µM and the GI50 [2] is reported as 1.35 µM. It also gave a TGI [2] of 16.3 µM, a GI50 [3] of 2.62 µM and a TGI [3] of 9.73 µM. The GI50 [4] was 2 µM, the TGI [4] was 6.69 µM and the GI50 [5] was 1.8 µM. For the same compound, the TGI [5] was 5.44 µM, the GI50 [6] was 2.08 µM and the TGI [6] was 88.3 µM. It also gave a GI50 [7] of 1.01 µM, a TGI [7] of 30.6 µM and a GI50 [8] of 1.56 µM. The TGI [8] was 3.27 µM, the GI50 [9] was 1.7 µM and the TGI [9] was 5.5 µM. It also gave a GI50 [10] of 0.781 µM, a TGI [10] of 7.39 µM and a GI50 [11] of 1.89 µM. It also gave a TGI [11] of 6 µM, a GI50 [12] of 2.84 µM and a TGI [12] of 17.9 µM. It also gave a GI50 [13] of 2.36 µM, a TGI [13] of 6.3 µM and a GI50 [14] of 1.51 µM. For the same compound, the TGI [14] was 3.44 µM, the GI50 [15] was 1.26 µM and the TGI [15] was 2.82 µM. The GI50 [16] was 1.33 µM, the TGI [16] was 3.03 µM and the GI50 [17] was 1.09 µM. The TGI [17] was 4.96 µM, the GI50 [18] was 1.44 µM and the TGI [18] was 3.17 µM. The GI50 [19] was 2.39 µM, the TGI [19] was 8.3 µM and the GI50 [20] was 2.37 µM. It also gave a TGI [20] of 12.8 µM, a GI50 [21] of 3.49 µM and a TGI [21] of 38.9 µM. For the same compound, the GI50 [22] was 0.505 µM, the TGI [22] was 11.5 µM and the GI50 [23] was 1.81 µM. It also gave a TGI [23] of 10.2 µM, a GI50 [24] of 1.6 µM and a TGI [24] of 5.61 µM. For the same compound, the GI50 [25] was 4.46 µM, the TGI [25] was 13.3 µM and the GI50 [26] was 3.47 µM. The TGI [26] was 17.8 µM, the GI50 [27] was 1.8 µM and the TGI [27] was 3.97 µM. For the same compound, the GI50 [28] was 4.08 µM, the TGI [28] was 15.5 µM and the GI50 [29] was 1.03 µM. For the same compound, the TGI [29] was 2.43 µM, the GI50 [30] was 2.95 µM and the TGI [30] was 11.9 µM. It also gave a GI50 [31] of 1.34 µM, a TGI [31] of 11.5 µM and a GI50 [32] of 2.46 µM. It also gave a TGI [32] of 6.82 µM, a GI50 [33] of 1.35 µM and a TGI [33] of 6.86 µM. For the same compound, the GI50 [34] was 3.25 µM, the TGI [34] was 11 µM and the GI50 [35] was 2.14 µM. For the same compound, the TGI [35] was 8.53 µM, the GI50 [36] was 1.36 µM and the TGI [36] was 6.91 µM. It also gave a GI50 [37] of 4.22 µM, a TGI [37] of 15 µM and a GI50 [38] of 1.74 µM. For the same compound, the TGI [38] was 4.13 µM, the GI50 [39] was 0.798 µM and the TGI [39] was > 100 µM. For the same compound, the GI50 [40] was 2.37 µM, the TGI [40] was 11.3 µM and the GI50 [41] was 2.34 µM. It also gave a TGI [41] of 7.1 µM, a GI50 [42] of 2.07 µM and a TGI [42] of 7.82 µM. The GI50 [43] was 1.7 µM, the TGI [43] was 3.26 µM and the GI50 [44] was 2.16 µM. The TGI [44] was 7.09 µM, the GI50 [45] was 2.73 µM and the TGI [45] was 14.2 µM. For the same compound, the GI50 [46] was 2.51 µM, the TGI [46] was 13.1 µM and the GI50 [47] was 1.86 µM. The TGI [47] was 14.2 µM, the GI50 [48] was 2.36 µM and the TGI [48] was 15.6 µM. The GI50 [49] was 1.89 µM, the TGI [49] was 5.76 µM and the GI50 [50] was 2.93 µM. For the same compound, the TGI [50] was 9.32 µM, the GI50 [51] was 1.84 µM and the TGI [51] was 20.8 µM. The GI50 [52] was 1.85 µM, the TGI [52] was 5.74 µM and the GI50 [53] was 1.23 µM. For the same compound, the TGI [53] was 9.62 µM, the GI50 [54] was 2.32 µM and the TGI [54] was 10.3 µM. It also gave a GI50 [55] of 1.73 µM, a TGI [55] of 4.64 µM and a GI50 [56] of 3.08 µM. For the same compound, the TGI [56] was 17.5 µM, the GI50 [57] was 2.03 µM and the TGI [57] was 7.85 µM.

With `O=C(C1CC1)N1CC[C@@H](Cc2n[nH]c(=O)n2-c2ccc(-c3ccc4occc4c3)cc2)C1` the GI50 [1] was 24.2 µM, the TGI [1] was > 100 µM and the GI50 [2] was 23.9 µM. The TGI [2] was > 100 µM, the GI50 [3] was 23.4 µM and the TGI [3] was > 100 µM. The GI50 [4] was 14.8 µM, the TGI [4] was > 87.6 µM and the GI50 [5] was 17 µM. For the same compound, the TGI [5] was > 100 µM, the GI50 [6] was 25.3 µM and the TGI [6] was > 100 µM. The GI50 [7] was 15.6 µM, the TGI [7] was > 100 µM and the GI50 [8] was 12 µM. For the same compound, the TGI [8] was 33.6 µM, the GI50 [58] was 19.6 µM and the TGI [58] was > 100 µM. For the same compound, the GI50 [9] was 15 µM, the TGI [9] was 72.5 µM and the GI50 [10] was 1.91 µM. The TGI [10] was 65.4 µM, the GI50 [11] was 22.4 µM and the TGI [11] was > 87.8 µM. For the same compound, the GI50 [12] was 6.09 µM, the TGI [12] was > 88.5 µM and the GI50 [13] was 7.51 µM. The TGI [13] was > 81.1 µM, the GI50 [14] was 17.6 µM and the TGI [14] was > 100 µM. For the same compound, the GI50 [15] was 14.3 µM, the TGI [15] was 84 µM and the GI50 [16] was 21.1 µM. The TGI [16] was > 100 µM, the GI50 [17] was 11.2 µM and the TGI [17] was > 100 µM. The GI50 [18] was 25.4 µM, the TGI [18] was > 100 µM and the GI50 [19] was 32 µM. The TGI [19] was > 100 µM, the GI50 [20] was 12.6 µM and the TGI [20] was > 100 µM. The GI50 [21] was 21.3 µM, the TGI [21] was > 100 µM and the GI50 [22] was 1.62 µM. The TGI [22] was > 100 µM, the GI50 [23] was 21.2 µM and the TGI [23] was > 100 µM. It also gave a GI50 [24] of 11.8 µM, a TGI [24] of 54.8 µM and a GI50 [25] of 28.3 µM. For the same compound, the TGI [25] was > 100 µM, the GI50 [26] was 20.4 µM and the TGI [26] was > 100 µM. For the same compound, the GI50 [27] was 12.3 µM, the TGI [27] was > 100 µM and the GI50 [28] was 25.4 µM. For the same compound, the TGI [28] was > 100 µM, the GI50 [29] was 10.3 µM and the TGI [29] was 51.3 µM. The GI50 [30] was 23.2 µM, the TGI [30] was > 100 µM and the GI50 [32] was 15 µM. The TGI [32] was > 85.4 µM, the GI50 [33] was 24.4 µM and the TGI [33] was > 100 µM. The GI50 [34] was 3.2 µM, the TGI [34] was > 100 µM and the GI50 [35] was 17.2 µM. For the same compound, the TGI [35] was > 100 µM, the GI50 [36] was 2.82 µM and the TGI [36] was > 75.4 µM. For the same compound, the GI50 [37] was 11.5 µM, the TGI [37] was > 100 µM and the GI50 [38] was 1.65 µM. The TGI [38] was 48.7 µM, the GI50 [39] was 8.18 µM and the TGI [39] was > 100 µM. The GI50 [40] was 29 µM, the TGI [40] was > 96.6 µM and the GI50 [41] was 21.5 µM. The TGI [41] was 70.3 µM, the GI50 [42] was 39.1 µM and the TGI [42] was > 100 µM. The GI50 [43] was 33.9 µM, the TGI [43] was > 100 µM and the GI50 [44] was 27.6 µM. For the same compound, the TGI [44] was > 100 µM, the GI50 [45] was 16.9 µM and the TGI [45] was > 100 µM. The GI50 [46] was 9.02 µM, the TGI [46] was > 94.5 µM and the GI50 [47] was 18 µM. The TGI [47] was > 96.5 µM, the GI50 [48] was 23.2 µM and the TGI [48] was > 100 µM. For the same compound, the GI50 [49] was 20.9 µM, the TGI [49] was > 92 µM and the GI50 [50] was 42.5 µM. For the same compound, the TGI [50] was > 100 µM, the GI50 [51] was 30.8 µM and the TGI [51] was > 100 µM. For the same compound, the GI50 [52] was 15.8 µM, the TGI [52] was > 73.7 µM and the GI50 [53] was 13.7 µM. For the same compound, the TGI [53] was > 94.1 µM, the GI50 [54] was 0.131 µM and the TGI [54] was > 44.4 µM. The GI50 [55] was 8.16 µM, the TGI [55] was > 100 µM and the GI50 [56] was 12.4 µM. The TGI [56] was > 100 µM, the GI50 [57] was 23.4 µM and the TGI [57] was > 100 µM.
